Results from patent publication US20140294729A1, “METHODS FOR IDENTIFICATION AND USE OF AGENTS TARGETING CANCER STEM CELLS” (Whitehead Institute for Biomedical Research, priority 2008, published 2014).
Entries after “also recorded” stand apart in the source; their conditions may differ.

Legend:
[1] = system: MCF7Ras cells; experiment: Mammosphere-forming potential of treated MCF7Ras cells; type: cell-based; settings: FIG. 14
Description: (§1) FIG. 14A depicts the mammosphere forming potential of parental HMLER cells treated with either DMSO, paclitaxel (taxol) or salinomycin at the specified doses. FIG. 14B depicts MCF7Ras or 4T1 cells that were treated with DMSO, paclitaxel or salinomycin. Mammosphere-forming potential is shown below.
(§2) Mammosphere culture was performed as described (Dontu et al., 2003), except that the culture medium contained 0.9% methyl cellulose (Stem cell technologies) to prevent cell aggregation. […] were plated per well in 96-well plates. The mammospheres were cultured for 7-10 days and then photographed and counted.
(§3) The mammosphere forming potential of parental HMLER cells treated with either DMSO, paclitaxel (taxol) or salinomycin was also examined at various doses. Salinomycin, but not paclitaxel inhibited mammosphere formation in MCF7Ras or 4T1 cells. (FIG. 14.) The effects of salinomycin, paclitaxel or vehicle control treatments on in vivo tumor formation by SUM159 breast cancer cells injected in mice was determined. […] (FIG. 15A.) The mammosphere-forming potential of cancer cells obtained from SUM159 tumors from salinomycin, paclitaxel or DMSO-treated mice was also determined (FIG. 15B.)

[2] = system: SUM159 cells; experiment: FACS of the CD44hi/CD24lo fraction in treated SUM159 cells; type: cell-based; settings: for percent of cells in the CD44hi/CD2410 fraction relative to DMSO controls: FIGS. 5C and 5D
Excerpt: FIG. 5A depicts flow cytometry analysis of Sum159, MDA-MB-231 and T47D cell lines with respect to cell surface expression of CD44 and CD24. Note that while the majority of cells in Sum159 and MDA-MB-231 line contain large amounts of CSCs, T47D cells have very few such cells. FIG. 5B depicts dose response curves of Sum159, MDA-MB-231 and T47D cell treated with Salinomycin.
To further characterize the effects of compound treatment on cancer cells, we conducted FACS analyses on SUM159 cells treated with salinomycin, abamectin, taxol, or DMSO.
(§4) The anti-CD44 (clone G44-26) antibody conjugated to APC and the anti-CD24 antibody (clone ML5) conjugated to PE used for FACS analysis were obtained from BD Bioscience and used according to the manufacturer's instructions. Propidium Iodide (5 ug/ml) was included in the staining protocol to distinguish live cells.

[3] = system: SUM159 breast cancer cells; experiment: In vivo tumor formation by SUM159 breast cancer cells in treated mice; settings: FIG. 15A
Description: FIG. 15A depicts in vivo tumor formation by SUM159 breast cancer cells in mice that were treated with salinomycin, paclitaxel or vehicle. […] FIG. 15B depicts the mammosphere-forming potential of cancer cells obtained from SUM159 tumors from salinomycin, paclitaxel or DMSO-treated mice.
as §3

[4] = system: HMLER cells; experiment: FACS of the CD44+/CD24- CSC population in treated HMLER cells; type: cell-based, human
Description: (§5) FIGS. 6A and 6B depict effects of salinomycin on the CSC population in HMLER cell line. (FIG. 6A) HMLER cells were treated with vehicle control (dmso), salinomycin or paclitaxel at the indicated concentrations for 15 days. FACS analysis were performed at the end of treatment to gauge the CD44+/CD24− CSC population (right panels). Note that salinomycin decreases the CD44+/CD24− population from a basal of 4.9% to 0.2%. Treated cultures were also subjected to the mammosphere formation assay (left panels). Number of mammopsheres formed per 1000 cells from each culture are indicated below the representative photographs of assay wells. (FIG. 6B) Growth rates of HMLER cultures after treatment with vehicle control (dmso), salinomycin or paclitaxel at the indicated concentrations in (A) for 15 days.
We then turned to the critical question of whether the compounds had the general ability to inhibit CSCs in breast cancer cell lines. […] We next compared the effects of salinomycin, control vehicle DMSO and paclitaxel on HMLER cells. […] The CD44+/CD24− fraction was thus 360-fold lower following treatment with salinomycin than with paclitaxel (FIG. 6A). Proliferation of the bulk population was not inhibited following treatment with salinomycin relative to either vehicle- or paclitaxel-treatment (FIG. 6B).
as §4

[5] = system: 4T1 cells; experiment: Mammosphere-forming potential of treated 4T1 cells; type: cell-based; settings: FIG. 14
Description: as §1, §2, §3

[6] = system: SUM159 breast cancer cells; experiment: Mammosphere formation assay with SUM159 breast cancer cells; type: cell-based
Description: (§6) To directly evaluate the effect of salinomycin on cancer stem cell populations, we functionally assayed for cancer stem cell activity in salinomycin, taxol, or DMSO-treated cultures.
as §2

[7] = system: HMLER cells; experiment: Mammosphere formation assay of treated HMLER cells; type: cell-based, human
Description: as §5
We examined the ability of breast cancer cells to form mammospheres following treatment with salinomycin.
as §2

[8] = system: CSCs in breast cancer cell populations; experiment: In vivo tumor-seeding ability after in vitro drug treatment (serial dilution, subcutaneous injection); set-up: species or system NOD/SCID mice
Description: Finally, we also directly assessed the functional presence of CSCs by assaying in vivo tumor-seeding ability following drug treatment. Cells were treated in vitro for 5 days and then injected subcutaneously into NOD/SCID mice. […] The proportion of functional CSCs was thus reduced by 1000-fold following salinomycin treatment compared to paclitaxel treatment.
as §6
We have established several downstream assays for the follow-up evaluation of screen hits with respect to their effects on cancer stem cells: (1) Treat cells in culture for a period of time with screen hits (e.g., compounds, compositions, antibodies, shRNAs, etc.), including the necessary controls, and then allow the cells to recover for a period (e.g., up to 12 hours, up to 24 hours, up to 48 hours, up to 72 hours etc.), and then perform FACS with markers that identify populations enriched for cancer stem cells (for example, but not limited to, CD44+/CD24− in the case of breast cancer). (2) Treat cells in culture for a period of time with screen hits, allow them to recover for a prescribed period of time, and then perform colony formation assays in suspension in the absence of chemical compound (for breast cancer cells, these assays are referred to as mammosphere formation assays). (3) Treat cells in culture for a period of time with screen hits, allow them to recover for a prescribed period of time, and then inject cells at various cell numbers subcutaneously into immunocompromised animals and evaluate the frequency of tumor formation. The number of injected cells could include 10̂6, 10̂5, 10̂4, 10̂3, and 10̂2 cells. Using follow-up assays, such as those disclosed herein, one can evaluate whether or not a screen hit (or any drug with potential CSC-directed activity) is a bonafide inhibitor of cancer stem cells.

CC(=O)O[C@H]1C(=O)[C@@]2(C)[C@H]([C@H](OC(=O)c3ccccc3)[C@]3(O)C[C@H](OC(=O)[C@H](O)[C@@H](NC(=O)c4ccccc4)c4ccccc4)C(C)=C1C3(C)C)[C@]1(OC(C)=O)CO[C@@H]1C[C@@H]2O [paclitaxel]
mammosphere formation [1]: not
percent of cells in the CD44hi/CD2410 fraction relative to DMSO controls [2]: did not significantly affect
tumor volume / tumor growth compared with vehicle control [3]: reduced tumor volume
increase of the CSC-fraction (CD44+/CD24−) ([4]; FIG. 6A): 18 fold
mammosphere formation [5]: not
number of cells capable of forming colonies in suspension culture relative to DMSO [6]: increase
mammosphere size [7]: significant increase
effect on the number of mammospheres ([7]; FIG. 6A): neither paclitaxel nor vehicle treatment affected the number of mammospheres
increase in tumor-seeding ability relative to controls ([8]; cells treated in vitro for 5 days, data not shown): ~10 fold
CSC functional activity / CSC number in tumor-formation dilution series relative to DMSO-treated controls ([8]; mouse, in vivo): induced an increase in CSCs
CSC functional activity / CSC number in tumor-formation dilution series relative to DMSO-treated controls ([8]; mouse, in vivo, listed as taxol): opposite effect

CC[C@@H](C(=O)[C@@H](C)[C@@H](O)[C@H](C)[C@@H]1O[C@@H]([C@@H](CC)C(=O)O)CC[C@@H]1C)[C@H]1O[C@]2(C=C[C@@H](O)[C@]3(CC[C@@](C)([C@H]4CC[C@](O)(CC)[C@H](C)O4)O3)O2)[C@H](C)C[C@@H]1C [salinomycin]
mammosphere formation [1]: inhibited
increase in the CSC-depleted fraction [2]: ~3 fold
percent of cells in the CD44hi/CD2410 fraction relative to DMSO controls [2]: significantly reduced
percent of cells in the CD44hi/CD2410 fraction relative to DMSO controls ([2]; listed as Salinomycin): decrease in the CSC population
tumor volume / tumor growth compared with vehicle control [3]: reduced tumor volume; also recorded: inhibition of tumor growth
CD44+/CD24− population after treatment (basal 4.9%) ([4]; 15 days): 0.2%
CD44+/CD24− fraction lower following salinomycin than with paclitaxel ([4]; FIG. 6A): 360 fold
decrease of the proportion of CD44+/CD24− cells relative to vehicle-treated controls ([4]; FIG. 6A): 20 fold
mammosphere formation [5]: inhibited
number of cells capable of forming colonies in suspension culture relative to DMSO [6]: significantly reduced
decrease in the number of mammospheres relative to controls ([7]; FIG. 6A): ~10 fold
decrease in tumor-seeding ability (CSCs) relative to vehicle/control treatment ([8]; cells treated in vitro for 5 days, injected subcutaneously, data not shown): 100 fold
CSC functional activity / CSC number in tumor-formation dilution series relative to DMSO-treated controls ([8]; mouse, in vivo): significantly reduced
reduction of functional CSCs following salinomycin compared to paclitaxel treatment ([8]; mouse, in vivo): 1000 fold
